Patent US10414740B2, “Glutaminase inhibitors and method of use” (Agios Pharmaceuticals, Inc., priority 2012, dated 2019)

The compounds below were run against T1, glutaminase (GAC) (Homo sapiens, UniProt O94925) (assay: glutaminase coupled endpoint assay (Example A)). Conditions: inhibition of glutaminase; IC50 tested in an assay of Example A or Example B.
T1 sequence (O94925 55-598 isoform O94925-3 limits assumed): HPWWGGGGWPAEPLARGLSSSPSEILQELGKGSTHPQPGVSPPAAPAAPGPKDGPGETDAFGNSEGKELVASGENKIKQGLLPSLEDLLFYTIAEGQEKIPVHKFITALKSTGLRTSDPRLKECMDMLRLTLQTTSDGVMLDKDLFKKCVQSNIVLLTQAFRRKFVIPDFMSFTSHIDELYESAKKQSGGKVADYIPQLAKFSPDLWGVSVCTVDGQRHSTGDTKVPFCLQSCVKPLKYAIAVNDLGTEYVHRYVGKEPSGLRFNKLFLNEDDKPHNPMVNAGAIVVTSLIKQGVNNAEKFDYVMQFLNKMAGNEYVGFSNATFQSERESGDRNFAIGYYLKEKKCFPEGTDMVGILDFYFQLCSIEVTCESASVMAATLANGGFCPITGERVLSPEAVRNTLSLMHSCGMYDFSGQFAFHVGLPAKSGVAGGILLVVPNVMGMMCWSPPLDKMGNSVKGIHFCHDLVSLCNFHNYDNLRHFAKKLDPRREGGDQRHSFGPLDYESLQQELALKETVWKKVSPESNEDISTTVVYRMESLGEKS
Format: biochemical
Procedure, shortened: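 Coupled endpoint read-out: glutamate from GAC is converted by excess GDH, and diaphorase recycles NADH to NAD while reducing resazurin to fluorescent resorufin, so loss of signal means inhibition. Compound in DMSO is preincubated with enzyme for 60 min at room temperature before substrate is added. Hits are counterscreened against GDH/diaphorase alone.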

Compound	IC50 [nM]
COc1ccc(CC(=O)Nc2nnc(CCCCc3nnc(NC(C)=O)s3)s2)cc1OC [Compound 118, N-(5-(4-(5-acetamido-1,3,4-thiadiazol-2-yl)butyl)-1,3,4-thiadiazol-2-yl)-2-(3,4-dimethoxyphenyl)acetamide]	100 to 500
COc1ccc(CC(=O)Nc2nnc(CCCCc3nnc(NC(=O)Cc4ccc(OC)cc4OC)s3)s2)c(OC)c1 [Compound 119, N,N′-(5,5′-(butane-1,4-diyl)bis(1,3,4-thiadiazole-5,2-diyl))bis(2-(2,4-dimethoxyphenyl)acetamide)]	< 100
O=C(CC1CCCCC1)Nc1nnc(CCCCc2nnc(NC(=O)CC3CCCCC3)s2)s1 [Compound 121, N,N′-(5,5′-(butane-1,4-diyl)bis(1,3,4-thiadiazole-5,2-diyl))bis(2-cyclohexylacetamide)]	100 to 500
Cn1nc(CC(=O)Nc2nnc(CCCCc3nnc(NC(=O)Cc4nn(C)c5ccccc45)s3)s2)c2ccccc21 [Compound 122, N,N′-(5,5′-(butane-1,4-diyl)bis(1,3,4-thiadiazole-5,2-diyl))bis(2-(1-methyl-1H-indazol-3-yl)acetamide)]	< 100
O=C(Cc1cccc2[nH]ccc12)Nc1nnc(CCCCc2nnc(NC(=O)Cc3cccc4[nH]ccc34)s2)s1 [Compound 123, N,N′-(5,5′-(butane-1,4-diyl)bis(1,3,4-thiadiazole-5,2-diyl))bis(2-(1H-indol-4-yl)acetamide)]	< 100
O=C(Cc1c[nH]c2ccncc12)Nc1nnc(CCCCc2nnc(NC(=O)Cc3c[nH]c4ccncc34)s2)s1 [Compound 124, N,N′-(5,5′-(butane-1,4-diyl)bis(1,3,4-thiadiazole-5,2-diyl))bis(2-(1H-pyrrolo[3,2-c]pyridin-3-yl)acetamide)]	< 100
O=C(Cc1c[nH]c2cnccc12)Nc1nnc(CCCCc2nnc(NC(=O)Cc3c[nH]c4cnccc34)s2)s1 [Compound 125, N,N′-(5,5′-(butane-1,4-diyl)bis(1,3,4-thiadiazole-5,2-diyl))bis(2-(1H-pyrrolo[2,3-c]pyridin-3-yl)acetamide)]	< 100
O=C(Cc1n[nH]c2ccccc12)Nc1nnc(CCCCc2nnc(NC(=O)Cc3n[nH]c4ccccc34)s2)s1 [Compound 126, N,N′-(5,5′-(butane-1,4-diyl)bis(1,3,4-thiadiazole-5,2-diyl))bis(2-(1H-indazol-3-yl)acetamide)]	< 100
O=C(Cc1c[nH]c2cccnc12)Nc1nnc(CCCCc2nnc(NC(=O)Cc3c[nH]c4cccnc34)s2)s1 [Compound 127, N,N′-(5,5′-(butane-1,4-diyl)bis(1,3,4-thiadiazole-5,2-diyl))bis(2-(1H-pyrrolo[3,2-b]pyridin-3-yl)acetamide)]	< 100
CC(=O)Nc1nnc(CCCCc2nnc(NC(=O)c3ccc4[nH]c(C)nc4c3)s2)s1 [Compound 128, N-(5-(4-(5-acetamido-1,3,4-thiadiazol-2-yl)butyl)-1,3,4-thiadiazol-2-yl)-2-methyl-1H-benzo[d]imidazole-5-carboxamide]	< 100
COc1ccc2[nH]cc(CC(=O)Nc3nnc(CCCCc4nnc(NC(C)=O)s4)s3)c2c1 [Compound 129]	< 100
Cn1cc(CC(=O)Nc2nnc(CCCCc3nnc(NC(=O)Cc4cn(C)c5ccccc45)s3)s2)c2ccccc21 [Compound 130, N,N′-(5,5′-(butane-1,4-diyl)bis(1,3,4-thiadiazole-5,2-diyl))bis(2-(1-methyl-1H-indol-3-yl)acetamide)]	< 100
COc1ccccc1CC(=O)Nc1nnc(CCCCc2nnc(NC(=O)Cc3ccccc3OC)s2)s1 [Compound 132, N,N′-(5,5′-(butane-1,4-diyl)bis(1,3,4-thiadiazole-5,2-diyl))bis(2-(2-methoxyphenyl)acetamide)]	< 100
